# Measured values published in US20260199213A1, “PEPTIDE HAVING ACTIVITY OF IMPROVING STATE OF SKIN, AND USE THEREOF” (CAREGEN CO., LTD., priority 2022, published 2026).
# What was measured:
# SIRT-1 = SIRT-1 expression reduced by ultraviolet rays in HaCaT cells (RT-PCR); format: cell-based; conditions: 15 mJ/cm^2 UV, 10 μM, 50 μM or 1000 μM peptide, 8 hours
# Method: (§1) In this example, the aim was to confirm the effect of the peptide according to an embodiment on the recovery of skin barrier factors in damaged skin cells by evaluating changes in the levels of skin barrier factors in skin cells reduced by ultraviolet irradiation.
# (§2) Specifically, HaCaT cells were seeded in a 6-well plate at a density of 5×10^5 cells/well and cultured for 24 hours. Next, the cells were washed once with serum-free DMEM media, and 10 μM, 50 μM or 1000 μM of the peptide consisting of the amino acid sequence of SEQ ID NO: 1 was dispensed into 1 mL of the serum-free media, and cultured in a CO2 incubator at 37° C. for 1 hour. Next, the above culture was transferred to an e-tube, mixed with 1 ml of PBS, and dispensed into a well plate. Next, using a UV irradiator (VILBER LOURMAT, Cat No.: 3102-BSU, France), 15 mJ/cm^2 ultraviolet rays were irradiated to the HaCaT cells. Next, the PBS in the well plate was removed, 900 μL of the culture medium in which the peptides were dispensed was added, and the plate was cultured in a CO2 incubator at 37° C. for 8 hours. Next, the culture was washed twice with PBS, and RNA was isolated from the culture using easy blue (iNtRON, Cat. No.: 17061, Korea). Next, using an RT kit (Enzynomics, Cat. NO.: RT200, Korea), the isolated RNA was reverse transcribed to synthesize the respective cDNA. […]
# B16F10 cells = test: Melanin production in α-MSH-stimulated B16F10 cells; format: cell-based, mouse; conditions: 200 ng/ml α-MSH, 50 μM or 100 μM peptide, 72 hours, absorbance at 450 nm
# Method: B16F10 cells, a mouse melanoma cell line, were seeded at a density of 5×10^4 cells/well in a 6-well plate and cultured for 16 hours. Next, the culture medium was replaced with a medium including a 2% serum, and 200 ng/ml of α-MSH (α-melanocyte-stimulating hormones) was added to promote melanin production, in addition, 50 μM or 100 μM of each peptide consisting of the amino acid sequence of SEQ ID NO: 1 was added, and then cultured for 72 hours. Next, the cultured cells were dissolved with 1N NaOH and the absorbance at 450 nm was measured. Meanwhile, an untreated group (Con) was used as the control group, a group to which only α-MSH was added was used as the negative control group, a group to which the peptide consisting of the amino acid sequence of SEQ ID NO: 2 or 3 and α-MSH were added (50 μM, 100 μM) as the comparison group, and a group to which Arbutin (200 μM, 500 μM), known as a skin whitening agent, and α-MSH were added was used as the positive control group.
# procollagen I alpha = test: Procollagen I alpha protein level by Collagen ELISA in NIH3T3 cells; format: cell-based; conditions: 10 μM, 50 μM or 1000 μM peptide, 72 hours
# Method: (§3) Additionally, to evaluate the expression levels of procollagen I alpha and hyaluronic acid at the protein level, NIH3T3 cells or HaCaT cells were seeded at a density of 1×10^4 cells/well in 24-well plates and then cultured for 24 hours. Next, the cells were washed once with serum-free DMEM media, and 10 μM, 50 μM or 1000 μM of the peptide consisting of the amino acid sequence of SEQ ID NO: 1 was dispensed into 2 mL of the serum-free media, and cultured in a CO2 incubator at 37° C. for 72 hours. Next, the culture was centrifuged to settle the suspended matter, and the supernatant was transferred to an e-tube. Next, Collagen ELISA (abcam, Cat No.: ab210579, UK) and HA ELISA (ECHELON biosciences, Cat No.: K-1200, USA) were performed on the centrifuged culture. Meanwhile, in this example, an untreated group was used as the control group, and a group to which TGF-β1 or EGF was added was used as the positive control group.
# hyaluronic acid = test: Hyaluronic acid level by HA ELISA in HaCaT cells; format: cell-based; conditions: 10 μM, 50 μM or 1000 μM peptide, 72 hours
# Method: as §3
# fibronectin = test: Fibronectin expression by RT-PCR in NIH3T3 cells; format: cell-based
# Method: In this example, the aim was to confirm the effect of the peptide according to an example on improving endogenous skin aging, including improvement of wrinkles and enhancement of elasticity, etc., by evaluating the expression levels of collagen type 1 (Col1a1), fibronectin, elastin, and hyaluronic acid, which are known components of the dermis.
# Specifically, NIH3T3 cells were seeded in a 6-well plate at a density of 3×10^5 cells/well and cultured for 24 hours. Next, the cells were washed once with serum-free DMEM media, and 10 μM, 50 μM or 1000 μM of a peptide consisting of an amino acid sequence of SEQ ID NO: 1 was dispensed into 1 mL of the serum-free media, and cultured in a CO2 incubator at 37° C. for 24 hours. Next, the culture was washed twice with PBS, and RNA was isolated from the culture using easy blue (iNtRON, Cat. No.: 17061, Korea). Next, using an RT kit (Enzynomics, Cat. NO.: RT200, Korea), the isolated RNA was reverse transcribed to synthesize the respective cDNA. Next, using the synthesized 1 ug cDNA, primers for Colla1, fibronectin, or elastin, and a PCR kit (Enzynomics, Cat. No.: P581T, Korea), polymerase chain reaction (PCR) was performed. Meanwhile, in this example, an untreated group was used as a control group, and a group to which […] was added was used as a positive control group, the nucleotide sequences of the primers used in this example are shown in Table 2 below.
# In this example, the aim was to more specifically compare the effects of peptides according to an embodiment on improving intrinsic skin aging. To this end, a peptide consisting of an amino acid sequence of SEQ ID NO: 2, 3, or 4 having a sequence similar to a peptide according to an embodiment was set as a comparison group, and the expression levels of fibronectin and elastin were evaluated and compared in the same manner as in Example 2-1. […]
# AQP3 = AQP3 expression reduced by ultraviolet rays in HaCaT cells (RT-PCR); format: cell-based; conditions: 15 mJ/cm^2 UV, 10 μM, 50 μM or 1000 μM peptide, 8 hours
# Method: as §1, §2
substance,measurement,setting,value
GPRGDP [SEQ ID NO: 1],expression of SIRT-1 reduced by ultraviolet irradiation,SIRT-1,increased or restored
same,melanin production,B16F10 cells,decreased
same,expression of procollagen I alpha at the protein level,procollagen I alpha,increased
same,expression of hyaluronic acid at the protein level,hyaluronic acid,increased
same,expression of fibronectin,"fibronectin; 10 μM, 50 μM or 1000 μM peptide, 24 hours, PCR, vs untreated group",increased
same,expression of fibronectin (Example 2-2),"fibronectin; comparison experiment, FIG. 5 and FIG. 6",increased
same,fibronectin expression effect compared to the comparison group,"fibronectin; vs peptides of SEQ ID NO: 2, 3, or 4 (50 μM, 100 μM)",superior
same,expression of AQP3 reduced by ultraviolet irradiation,AQP3,increased or restored
